Where no end group is shown, it is not given here.
Test system: vascular response of rat footpad blisters (CGRP, substance P, eNOS effectors)
Experiment: Blister model: effect of sensory nerve peptide antagonists and eNOS inhibitor on the vascular response to 0.5% spinosad
Type: in vivo
Procedure: Neurogenic inflammatory responses are assessed using a well-established method (Khalil & Helme, Brain Res. 527: 292-298 (1990)). Anaesthesia is induced in outbred male Sprague-Dawley rats with pentobarbitone sodium (60 mg/kg i.p). General anaesthesia is maintained by supplementary injections of 15 mg/kg. This method of anaesthesia has been shown not to alter the basal vasodilator responses in peripheral microvasculature (Khalil & Helm; Brain Res. 500: 256-262 (1989)). The left jugular vein is cannulated with polyethylene tubing for the intravenous administration of heparin/saline solution or drugs. Body temperature is maintained at 37° C. At the completion of the experiment, the animals are sacrificed by barbiturate overdose.
Blisters are induced in the middle region of the hindpaw in anaesthetised rats using vacuum pressure of −40 kPa applied for 30 minutes via a metal suction cap heated to 40° C. Once a blister is established, the epidermis (surface epithelium) is removed and a perspex chamber with inlet and outlet ports secured over the blister base. Ringer's solution is perfused over the blister surface and maintained by a peristaltic pump at 4 ml/hr to establish baseline measurements. Relative blood flow is monitored over time by a laser Doppler flowmeter via a probe placed immediately above the blister base and relative blood flux (volts) monitored continuously on a chart recorder. […]

Q: How did the “% contribution of effector to the vascular response of spinosad” value (effector blocked by the perfused substance (eNOS, CGRP, Substance P), 0.5% spinosad) turn out when “CGRP8-37: CGRP antagonist; Auspep (VTHRLAGLLSRSGGVVKNNFVPTNVGSKAF; ends and bridges not checked; UniProt P06881 90-119, looked up, fragment)” was run?
A: The value was 27%.

Q: What about the “Blood flow as area under the curve” value (substance perfused 10 minutes, then co-perfused with 0.5% spinosad 30 minutes (Control = 0.5% spinosad alone), L-NAME 100 μM, CGRP8-37 1 μM, spantide II 10 μM, mean ± SEM, n = 6) of the same substance?
A: Its value is 83.2 (±6.5) cm^2.

From US8536142B2, “Spinosyns for wound healing” (Eli Lilly and Company, priority 2004, dated 2013)
